From patent publication US5220042A, “1,4-benzoquinone derivatives and benzene derivatives, and process for preparing the same” (priority 1984, dated 1993) come the findings set out here.

Where two headings read alike, the source gives them in different places.

The test system of the test is SRS-A release from lung fragments. In words: Inhibition of SRS-A release from sensitized guinea pig lung fragments. Type of test: cell-based, guinea pig (Hartley strain). The note with it: Cavia porcellus. On the procedure:
Inhibitory activities on the release of SRS-A and histamine of the present compounds were determined.
A male guinea pig (Hartley strain) (body weight: about 300 g) was sensitized by a method according to P. Anderson: "Int. Archs. Allergey appln. Immunol., Vol. 64, pages 249-258 (1981). Thus, 30 mg/kg of cyclophosphamide was intraperitoneally administered to the guinea pig, and 2 days after 1 microgram of ovalbumin (manufactured by Sigma Chemical Co., St. Louis, Mo. U. S. A.) together with 10 mg of aluminium hydroxide gel were intraperitoneally administered so as to have the animal sesitized.
50 Days after the sesitization, the animal was killed by exsanguination, and the lung was isolated from the animal and was perfused with 20 ml of Tyrode's solution, then immersed in an ice-cooled Tyrode's solution. The parenchyma of the lung was cut by using McIlwain-type tissue chopper to make it into fragments of lung having 2 mm square and the fragments were washed with Tyrode's solution. 400 Milligrams of sectiles of lung were suspended in 3.6 ml of Tyrode's solution, and this suspension was preincubated at 37° C. for 5 minutes, then 4 microliters of dimethyl sulfoxide solution of the test compound, in the case of control 4 microliters of dimethyl sulfoxide alone was added to the suspension. 5 Minutes after, 0.4 ml of 100 micrograms/ml of ovalbumin solution added so as to release SRS-A for 10 minutes. The suspension was ice-cooled and filtered through gauze, the filtrate was centrifuged at 2,000 rpm for 10 minutes and the supernatant was collected. The supernatant was stored in freezed state at -80° C. until bio-assay was conducted.
Amounts of SRS-A and histamine contained in the supernatant were determined by bio-assay using ileum of guinea pig.
A piece of the ileum (2-3 cm of length) positioned from 15-25 cm from the opening portion of ileocecum was isolated from a male guinea pig (Hartley strain) (body weight: 400-600 g) which was fasted for 24 hours. The piece of ileum was hanged vertically in a Magnus tube which was filled with 10 ml of Tyrode's solution containing 10^-7 M of atropine sulfate under air stream conditions. The isotonic contraction of the piece of the ileum was measured at 0.5 g of load by using an isotonic transducer "TD-112S" (manufactured by Nihon Koden Co., Ltd.). The measurements were carried out after the reaction to histamine of the piece of ileum was kept constant. Bioassay of histamine was measured by using the value of contraction shown in 30 seconds after the addition of the supernatant. Bioassay of on SRS-A was measured by using the value of contraction shown at 2 minutes after the addition of the supernatant in the presence of 10^-6 M of pyrilamine (manufactured by Sigma Chemical Co.), and compared with the standard curve of crude SRS-A released from the fragments of the lung.

Where [1] appears, read: Table 2B, 3 μM, read-out: Inhibitory activities on SRS-A (%).
Where [2] appears, read: Table 2B, 30 μM, read-out: Inhibitory activities on SRS-A (%).
Where [3] appears, read: Table 2B, read-out: Inhibitory activities on SRS-A (%).

In the case of `COc1cc(OC(C)=O)c(OC)c(CCCCCc2c(OC)c(OC(C)=O)cc(OC)c2OC(C)=O)c1OC(C)=O` [Test Compound No. 37, 1,5-bis[1,4-Diacetoxy-2,5-(dimethoxy)phen-3-yl]-pentane], the inhibition at 3 µM under setting [1] was determined as 69.2%. The inhibition at 30 µM under setting [2] was 90%.
For `COC1=C(CCCCCC2=C(OC)C(=O)C(OC)=C(OC)C2=O)C(=O)C(OC)=C(OC)C1=O` [Test Compound No. 54, 2,2'-Pentamethylenebis(3,5,6-trimethoxy-1,4-benzoquinone)], under setting [3], the inhibition at 1 µM is 32% and the inhibition at 10 µM was found to be 88.7%.
As for `COC1=CC(=O)C(OC)=C(CCCCC2=C(OC)C(=O)C=C(OC)C2=O)C1=O` [Test Compound No. 24, 2,2'-Tetramethylenebis(3,6-dimethoxy-1,4-benzoquinone)], under setting [3], the inhibition at 1 µM was 36.1% and the inhibition at 10 µM stood at 67.7%.
Consider `COC1=CC(=O)C(OC)=C(CCCCCCCCCC#CCCCCCCCCCC2=C(OC)C(=O)C=C(OC)C2=O)C1=O` [Test Compound No. 21, 2,2'-(10-Eicosynylene)bis(3,6-dimethoxy-1,4-benzoquinone)], for which the inhibition at 3 µM is -21.7% (Table 2, dose 3 μM, read-out: Inhibition ratio (%) SRS-A) and -21.7% under setting [1]. Also, the inhibition at 30 µM was 16.6% (Table 2, dose 30 μM, read-out: Inhibition ratio (%) SRS-A) and 16.6% under setting [2].
Consider `CCOC(=O)C1=C(OC)C(=O)C(CCCCCC2=C(OC)C(=O)C(CCO)=C(OC)C2=O)=C(OC)C1=O` [Test Compound No. 50, 1-(2,5-Dimethoxy-3-ethoxycarbonyl-1,4-benzoquinon-6-yl)-5-[2,5-dimethoxy-3-(2-hydroxyethyl)-1,4-benzoquinon-6-yl]pentane], for which, under setting [3], the inhibition at 1 µM was determined as 14.8% and the inhibition at 10 µM came to 41.7%.
For `CCCCC1=C(OC)C(=O)C(CCCCCC2=C(OC)C(=O)C(CCO)=C(OC)C2=O)=C(OC)C1=O` [Test Compound No. 47, 1-(2,5-Dimethoxy-3-butyl-1,4-benzoquinon-6-yl)-[2,5-dimethoxy-3-(2-hydroxyethyl)-1,4-benzoquinon-6-yl]pentane], under setting [3], the inhibition at 1 µM was 15.8% and the inhibition at 10 µM came out at 47.6%.
Take `COC1=CC(=O)C(OC)=C(COCC2=C(OC)C(=O)C=C(OC)C2=O)C1=O` [Test Compound No. 26, Bis[(3,6-Dimethoxy-1,4-benzoquinon-2-yl)methyl] ether]: the inhibition at 3 µM under setting [1] was determined as 10.9%. In addition, the inhibition at 30 µM under setting [2] stood at 39.8%.
Take `COC1=CC(=O)C(OC)=C(CCCCCC2=C(OC)C(=O)C(SC)=C(OC)C2=O)C1=O` [Test Compound No. 43, 1-(2,5-Dimethoxy-1,4-benzoquinon-3-yl)-5-(2,5-dimethoxy-3-methylthio-1,4-benzoquinon-6-yl)pentane]: under setting [3], the inhibition at 1 µM was 23.2% and the inhibition at 10 µM was 79.4%.
For the compound `COC1=CC(=O)C(OC)=C(CCCCCC2=C(OC)C(=O)C(CCCCCC3=C(OC)C(=O)C=C(OC)C3=O)=C(OC)C2=O)C1=O` [Test Compound No. 41, 2,5-Dimethoxy-3,6-bis[5-(2,5-dimethoxy-1,4-benzoquinon-3-yl)-entyl]-1,4-benzoquinone], under setting [3], the inhibition at 1 µM turned out to be 4.1% and the inhibition at 10 µM was 25%.
As to `CCCCC1=C(OC)C(=O)C(CCCCCC2=C(OC)C(=O)C=C(OC)C2=O)=C(OC)C1=O` [Test Compound No. 38, 3-Butyl-2,5-dimethoxy-6-[5-(2,5-dimethoxy-1,4-benzoquinon-3-yl)pentyl]-1,4-benzoquinone], under setting [3], the inhibition at 1 µM was determined as 25.1% and the inhibition at 10 µM stood at 38.2%.
Take `COC1=CC(=O)C(OC)=C(CCCCCC2=C(OC)C(=O)C(CCO)=C(OC)C2=O)C1=O` [Test Compound No. 40, 2,5-Dimethoxy-3-(2-hydroxyethyl)-6-[5-(2,5-dimethoxy-1,4-benzoquinon-3-yl)pentyl]-1,4-benzoquinone]: under setting [3], the inhibition at 1 µM was found to be 38.2% and the inhibition at 10 µM turned out to be 91.7%.
For `COC1=CC(=O)C(OC)=C(CCCCCSCCCCCC2=C(OC)C(=O)C=C(OC)C2=O)C1=O` [Test Compound No. 29, Bis[(3,6-dimethoxy-1,4-benzoquinon-2-yl)-pentyl]sulfide], under setting [3], the inhibition at 1 µM is 19.6% and the inhibition at 10 µM is 60.5%.
On to `COC1=C(CCCCCC2=C(OC)C(=O)C(SC)=C(OC)C2=O)C(=O)C(OC)=C(SC)C1=O` [Test Compound No. 45, 2,2'-Pentamethylenebis(3,6-dimethoxy-5-methylthio-1,4-benzoquinone)], for which, under setting [3], the inhibition at 1 µM turned out to be 28.1% and the inhibition at 10 µM stood at 50.7%.
Consider `CCOC(=O)C1=C(OC)C(=O)C(CCCCCC2=C(OC)C(=O)C=C(OC)C2=O)=C(OC)C1=O` [Test Compound No. 44, 1-(2,5-Dimethoxy-1,4-benzoquinon-3-yl)-5-(2,5-dimethoxy-3-ethoxycarbonyl-1,4-benzoquinon-6-yl)pentane], for which, under setting [3], the inhibition at 1 µM is -10.5% and the inhibition at 10 µM came to 18.6%.
As to `CC1=C(C)C(=O)C(CCCCCC2=C(C)C(=O)C(C)=C(C)C2=O)=C(C)C1=O` [Test Compound No. 55, 2,2'-Pentamethylenebis(3,5,6-trimethyl-1,4-benzoquinone)], under setting [3], the inhibition at 1 µM was 13.2% and the inhibition at 10 µM came to 38.7%.
Turning to `COC1=CC(=O)C(OC)=C(CCC2=C(OC)C(=O)C=C(OC)C2=O)C1=O` [Test Compound No. 23, 2,2'-Ethylenebis(3,6-dimethoxy-1,4-benzoquinone)], the inhibition at 30 µM under setting [2] was determined as 28.6%.
Regarding `CCCCC#CCCCC1=C(OC)C(=O)C(CCCCCC2=C(OC)C(=O)C=C(OC)C2=O)=C(OC)C1=O` [Test Compound No. 39, 2,5 Dimethoxy-3-(4-nonynyl)-6-[5-(2,5-dimethoxy-1,4-benzoquinon-3-yl)pentyl]-1,4-benzoquinone], under setting [3], the inhibition at 1 µM came to 0% and the inhibition at 10 µM amounted to 11%.
Take `CCOC(=O)C1=C(OC)C(=O)C(CCCCCC2=C(OC)C(=O)C(C(=O)OCC)=C(OC)C2=O)=C(OC)C1=O` [Test Compound No. 46, 2,2'-Pentamethylenebis(3,6-dimethoxy-5-ethoxycarbonyl-1,4-benzoquinone)]: under setting [3], the inhibition at 1 µM was determined as 18.2% and the inhibition at 10 µM is 16.2%.
With `COC1=C(CCO)C(=O)C(OC)=C(CCCCCC2=C(OC)C(=O)C(OC)=C(OC)C2=O)C1=O` [Test Compound No. 48, 1-(2,3,5-Trimethoxy-1,4-benzoquinon-6-yl)-5-[2,5-dimethoxy-3-(2-hydroxyethyl)-1,4-benzoquinon-6-yl]pentane], under setting [3], the inhibition at 1 µM turned out to be 37.6% and the inhibition at 10 µM turned out to be 89.4%.
For the compound `COC1=CC(=O)C(OC)=C(CCCSSCCCC2=C(OC)C(=O)C=C(OC)C2=O)C1=O` [Test Compound No. 28, Bis[(3,6-dimethoxy-1,4-benzoquinon-2-yl)propyl] disulfide], under setting [3], the inhibition at 1 µM stood at 30.5% and the inhibition at 10 µM was 85.2%.
With `COC1=C(CCO)C(=O)C(OC)=C(CCCCCC2=C(OC)C(=O)C(SC)=C(OC)C2=O)C1=O` [Test Compound No. 49, 1-(2,5-Dimethoxy-3-methylthio-1,4-benzoquinon-6-yl)-5-[2,5-dimethoxy-3-(2-hydroxyethyl)-1,4-benzoquinon-6-yl]pentane], under setting [3], the inhibition at 1 µM is -0.4% and the inhibition at 10 µM is 65.2%.
On to `COC1=CC(=O)C(OC)=C(CCCCCC2=C(OC)C(=O)C(OC)=C(OC)C2=O)C1=O` [Test Compound No. 53, 2,3,5-Trimethoxy-6-[5-(2,5-dimethoxy-1,4-benzoquinon-3-yl)pentyl]-1,4-benzoquinone], for which, under setting [3], the inhibition at 1 µM came out at 50.8% and the inhibition at 10 µM was determined as 94.9%.
Take `COCOc1cc(OC)c(OCOC)c(CCCCCc2c(OC)c(OCOC)cc(OC)c2OCOC)c1OC` [Test Compound No. 36, 1,5-bis[1,4-Dimethoxy-2,5-bis(methoxymethoxy)-phen-3-yl]pentane]: the inhibition at 3 µM under setting [1] turned out to be 12.1%. Moreover, under setting [2], the inhibition at 30 µM amounted to 24.5%.
As to `COC1=CC(=O)C(OC)=C(OCCCOC2=C(OC)C(=O)C=C(OC)C2=O)C1=O` [Test Compound No. 42, 2,2'-Trimethylenedioxybis(3,6-dimethoxy-1,4-benzoquinone)], under setting [3], the inhibition at 1 µM was found to be 28.4% and the inhibition at 10 µM amounted to 80%.
